# Results reported in patent publication US20240208950A1, “COMPOSITIONS AND METHODS FOR TREATMENT OF CERVICAL AND OVARIAN CANCER” (SOUTH DAKOTA BOARD OF REGENTS, priority 2021, published 2024).
# Legend:
# CaSki cells = assay: Cell cycle analysis by flow cytometry, CaSki; type: cell-based, human; conditions: 10 and 15 μM
# Experimental: The effect of Br-ORM on cell cycle analysis was performed by flow cytometry as has described in the art. In brief, approximately 70% confluent cervical cancer cells were treated with Br-ORM (10 and 20 μM) for 24 hours. The cells were trypsinized and washed twice with ice-cold PBS (1×). The cell pellets were resuspended in 50 μL of ice cold PBS (1×) and 450 μL of cold methanol. The cells were washed twice with ice cold PBS (1×), suspended in 500 μL PBS, and incubated with 500 μL RNase (20 μg/mL final concentration) at 37° C. for 1 hour. The cells were chilled over ice for 10 minutes and stained with propidium iodide (50 μg/mL final concentration) for 1 hour and analyzed by flow cytometry (BD Accuri C6; Becton Dickinson, Mountain View, CA, USA). Data was analyzed by using Modfit software.
# To examine the effect on cell cycle distribution, cervical cancer cells were treated with Br-ORM (10 and 15 μM) and analyzed by flow cytometry (FIG. 13F(i)-(ii)).
# [1] = test system: E-cadherin and N-cadherin mRNA in cervical cancer cells; assay: qPCR of E-cadherin and N-cadherin; type: cell-based, human; conditions: both cervical cancer cells, 18 hours
# Experimental: RNA from cervical cancer cells was isolated using Qiagen kit and quantified using NanoDrop instrument 2000 (Thermo Scientific, Waltham, MA, USA). To analyze the expression of miR-200a in control and Br-ORM treated cells, 100 ng total RNA was reverse transcribed into cDNA using specific primers designed for miRNA analysis (Applied Biosystems, Foster City, CA, USA). The expression of this miRNAs was determined by qRT-PCR using the Taqman PCR master mixture and specific primers designed for detection of mature miRNAs (Applied Biosystems). The expression of miRNA was normalized with the expression of endogenous control, RNU6B.
# Epithelial mesenchymal transition (EMT) is the basic characteristic of cancer cells in which epithelial cells undergo morphologic and molecular changes that transform the cells to mesenchymal, highly metastatic (invasive and motile), and drug-resistant phenotypes. […] The effect of Br-ORM treatment on various EMT markers in cervical cancer cells was evaluated. […] The effect of Br-ORM on expression of EMT markers in cervical cancer cells compared to untreated group by use of qPCR analysis was determined. […] Expression of E-cadherin in cervical cancer cells treated with Br-ORM (10 μM) for 18 hours was also determined by immunofluorescence and confocal microscopy. […]
# FIG. 14. […] Closure of wound was determined and photographed using phase contrast microscopy. […]
smiles,measurement,setting,value
COc1ccc2c(c1)OC(C)(C)C(c1ccc(Br)cc1)C2c1ccc(OCCN2CCCC2)cc1 (stereo not drawn) [ORM-Br],cell cycle distribution,CaSki cells,arrested cell cycle progression of CaSki and SiHa cells at G1/S phase
same,mRNA level of E-cadherin,[1],significantly elevated
same,mRNA level of N-cadherin,[1],significantly reduced
